Measurements taken from patent publication US20080194574A1, “Pyrazine Derivatives As Effective Compounds Against Infectious Diseases” (AXXIMA PHARMACEUTICALS AG, priority 2003, published 2008).

Target: T1, viral kinase pUL-97 (Human cytomegalovirus, UniProt P16788)
T1 construct: The pUL-97 gene was cloned into a baculovirus vector; GST (glutathione S-transferase) (N); made in house; host or cells: Sf9 insect cells, baculovirus
Assay: UL97 kinase assay on Immobilon plate
Type: biochemical
Settings: inhibition of UL 97 kinase activity; class by IC50 / % inhibition at 10 μM or 100 μM; read-out: Activity Class [A, B, C]
Procedure, shortened: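 GST-pUL97 from baculovirus-infected Sf9 cells phosphorylated myelin basic protein with ATP (3 μM in the added assay buffer) and γ-[33P]ATP in Tris-HCl pH 7.5 buffer with MnCl2 and DTT. Reaction ran 1 h at 30 °C with graded compound concentrations and was stopped with EDTA. 33P incorporation was measured by scintillation after filter capture and phosphoric acid washes.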

T1 sequence (P16788 whole entry): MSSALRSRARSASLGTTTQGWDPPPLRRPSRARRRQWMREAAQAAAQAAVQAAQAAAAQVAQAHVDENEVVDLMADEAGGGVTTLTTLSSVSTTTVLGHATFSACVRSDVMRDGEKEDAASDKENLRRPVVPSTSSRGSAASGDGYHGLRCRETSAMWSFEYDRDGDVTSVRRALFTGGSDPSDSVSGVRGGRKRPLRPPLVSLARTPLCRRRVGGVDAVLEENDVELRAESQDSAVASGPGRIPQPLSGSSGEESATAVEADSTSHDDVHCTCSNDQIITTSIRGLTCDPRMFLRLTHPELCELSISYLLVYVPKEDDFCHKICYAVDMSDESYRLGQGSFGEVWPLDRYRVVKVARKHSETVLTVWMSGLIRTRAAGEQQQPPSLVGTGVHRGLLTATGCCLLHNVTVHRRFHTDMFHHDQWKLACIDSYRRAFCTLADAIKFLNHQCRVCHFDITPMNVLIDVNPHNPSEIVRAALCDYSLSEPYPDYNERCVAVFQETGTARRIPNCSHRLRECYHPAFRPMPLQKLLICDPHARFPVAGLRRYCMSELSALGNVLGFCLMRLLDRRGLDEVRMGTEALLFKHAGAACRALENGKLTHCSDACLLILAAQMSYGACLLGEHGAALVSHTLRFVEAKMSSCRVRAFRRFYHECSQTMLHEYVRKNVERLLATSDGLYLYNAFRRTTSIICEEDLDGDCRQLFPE

Row | SMILES | IC50
1 | CC(=O)c1ccc(-c2cncc(N3CCN(c4ccc(C)cc4C)CC3)n2)s1 [compound 289, 1-{5-[4-(2,4-Dimethyl-phenyl)-3,4,5,6-tetrahydro-2H-[1,2′]bipyrazinyl-6′-yl]-thiophen-2-yl}-ethanone] | 10 to 100 µM
2 | Cc1ccc(N2CCN(c3cncc(-c4ccc5ccccc5c4)n3)CC2)c(C)c1 [compound 320, 4-(2,4-Dimethyl-phenyl)-6′-naphthalen-2-yl-3,4,5,6-tetrahydro-2H-[1,2′]bipyrazinyl] | 10 to 100 µM
3 | c1ccc(C2CCN(c3cncc(-c4csc5ccccc45)n3)CC2)cc1 [compound 319, 2-Benzo[b]thiophen-3-yl-6-(4-phenyl-piperidin-1-yl)-pyrazine] | 10 to 100 µM
4 | CC(=O)c1ccc(-c2cncc(N3CCN(c4ccccn4)CC3)n2)cc1 [compound 308, 1-[4-(4-Pyridin-2-yl-3,4,5,6-tetrahydro-2H-[1,2′]bipyrazinyl-6′-yl)-phenyl]-ethanone] | 1 to 10 µM
5 | OCc1ccc(-c2cncc(N3CCN(c4cccc(C(F)(F)F)c4)CC3)n2)cc1 [compound 254, {4-[4-(3-Trifluoromethyl-phenyl)-3,4,5,6-tetrahydro-2H-[1,2′]bipyrazinyl-6′-yl]-phenyl}-methanol] | 10 to 100 µM
6 | CCOc1ccc(-c2cncc(N3CCN(c4ccc(F)cc4)CC3)n2)cc1 [compound 271, 6′-(4-Ethoxy-phenyl)-4-(4-fluoro-phenyl)-3,4,5,6-tetrahydro-2H-[1,2′]bipyrazinyl] | 10 to 100 µM
7 | FC(F)(F)c1ccc(N2CCN(c3cncc(-c4ccc5ccccc5c4)n3)CC2)cc1 [compound 352, 6′-Naphthalen-2-yl-4-(4-trifluoromethyl-phenyl)-3,4,5,6-tetrahydro-2H-[1,2′]bipyrazinyl] | 1 to 10 µM
8 | Cc1ccc(N2CCN(c3cncc(-c4ccc(C(F)(F)F)cc4)n3)CC2)c(C)c1 [compound 354, 4-(2,4-Dimethyl-phenyl)-6′-(4-trifluoromethyl-phenyl)-3,4,5,6-tetrahydro-2H-[1,2′]bipyrazinyl] | 10 to 100 µM
9 | COc1ccc(N2CCN(c3cncc(-c4ccc(C(N)=O)cc4)n3)CC2)cc1 [compound 290, 4-[4-(4-Methoxy-phenyl)-3,4,5,6-tetrahydro-2H-[1,2′]bipyrazinyl-6′-yl]-benzamide] | < 1 µM
10 | FC(F)(F)c1cccc(N2CCN(c3cncc(-c4ccc5ccccc5c4)n3)CC2)c1 [compound 252, 6′-Naphthalen-2-yl-4-(3-trifluoromethyl-phenyl)-3,4,5,6-tetrahydro-2H-[1,2′]bipyrazinyl] | 10 to 100 µM

Continued, values first:

Row | IC50 | SMILES
11 | 10 to 100 µM | CN(C)c1ccc(-c2cncc(N3CCN(c4ccc(Cl)cc4)CC3)n2)cc1 [compound 340, {4-[4-(4-Chloro-phenyl)-3,4,5,6-tetrahydro-2H-[1,2′]bipyrazinyl-6′-yl]-phenyl}-dimethyl-amine]
12 | 1 to 10 µM | COc1ccc(N2CCN(c3cncc(-c4ccsc4)n3)CC2)cc1OC [compound 261, 4-(3,4-Dimethoxy-phenyl)-6′-thiophen-3-yl-3,4,5,6-tetrahydro-2H-[1,2′]bipyrazinyl]
13 | 1 to 10 µM | COc1ccc(N2CCN(c3cncc(-c4cccc(C)c4)n3)CC2)cc1OC [compound 223, 4-(3,4-Dimethoxy-phenyl)-6′-m-tolyl-3,4,5,6-tetrahydro-2H-[1,2′]bipyrazinyl]
14 | 10 to 100 µM | COc1ccc(N2CCN(c3cncc(-c4ccccc4)n3)CC2)cc1 [compound 291, 4-(4-Methoxy-phenyl)-6′-phenyl-3,4,5,6-tetrahydro-2H-[1,2′]bipyrazinyl]
15 | 10 to 100 µM | CC(=O)c1cccc(-c2cncc(N3CCN(c4cccc(C)c4C)CC3)n2)c1 [compound 297, 1-{3-[4-(2,3-Dimethyl-phenyl)-3,4,5,6-tetrahydro-2H-[1,2′]bipyrazinyl-6′-yl]-phenyl}-ethanone]
16 | 10 to 100 µM | COc1ccc(-c2cncc(N3CCN(c4ccc(C(F)(F)F)cc4)CC3)n2)cc1OC [compound 310, 6′-(3,4-Dimethoxy-phenyl)-4-(4-trifluoromethyl-phenyl)-3,4,5,6-tetrahydro-2H-[1,2′]bipyrazinyl]
17 | 1 to 10 µM | c1ccc2c(-c3cncc(N4CCN(c5ccncc5)CC4)n3)cccc2c1 [compound 221, 6′-Naphthalen-1-yl-4-pyridin-4-yl-3,4,5,6-tetrahydro-2H-[1,2′]bipyrazinyl]
18 | 10 to 100 µM | CC(=O)c1ccccc1-c1cncc(N2CCN(c3ccncc3)CC2)n1 [compound 218, 1-[2-(4-Pyridin-4-yl-3,4,5,6-tetrahydro-2H-[1,2′]bipyrazinyl-6′-yl)-phenyl]-ethanone]
19 | 1 to 10 µM | COc1cccc(N2CCN(c3cncc(-c4csc5ccccc45)n3)CC2)c1 [compound 286, 6′-Benzo[b]thiophen-3-yl-4-(3-methoxy-phenyl)-3,4,5,6-tetrahydro-2H-[1,2′]bipyrazinyl]
20 | 10 to 100 µM | FC(F)(F)c1cccc(N2CCN(c3cncc(-c4ccccc4Oc4ccccc4)n3)CC2)c1 [compound 217, 6′-(2-Phenoxy-phenyl)-4-(3-trifluoromethyl-phenyl)-3,4,5,6-tetrahydro-2H-[1,2′]bipyrazinyl]
21 | 1 to 10 µM | OCc1ccc(-c2cncc(N3CCN(c4ccc(Cl)c(Cl)c4)CC3)n2)cc1 [compound 315, {4-[4-(3,4-Dichloro-phenyl)-3,4,5,6-tetrahydro-2H-[1,2′]bipyrazinyl-6′-yl]-phenyl}-methanol]
22 | 1 to 10 µM | COc1cccc(-c2cncc(N3CCN(c4ccc(Cl)cc4)CC3)n2)c1 [compound 302, 4-(4-Chloro-phenyl)-6′-(3-methoxy-phenyl)-3,4,5,6-tetrahydro-2H-[1,2′]bipyrazinyl]
23 | 10 to 100 µM | CC(C)(C)c1ccc(-c2cncc(N3CCN(c4cccc(C(F)(F)F)c4)CC3)n2)cc1 [compound 253, 6′-(4-tert-Butyl-phenyl)-4-(3-trifluoromethyl-phenyl)-3,4,5,6-tetrahydro-2H-[1,2′]bipyrazinyl]

Same assay, conditions: inhibition of UL 97 kinase activity; class by IC50 / % inhibition at 10 or 100 μM; read-out: Activity Class [A, B, C]

Row | SMILES | IC50
24 | OCc1ccc(-c2cncc(N3CCN(c4ccccc4F)CC3)n2)cc1 [compound 125, {4-[4-(2-Fluoro-phenyl)-3,4,5,6-tetrahydro-2H-[1,2′]bipyrazinyl-6′-yl]-phenyl}-methanol] | 1 to 10 µM
25 | NC(=O)c1ccc(-c2cncc(N3CCN(c4ccccn4)CC3)n2)cc1 [Comp. 15, 4-(4-Pyridin-2-yl-3,4,5,6-tetrahydro-2H-[1,2′]bipyrazinyl-6′-yl)-benzamide] | < 1 µM
26 | CSc1ccc(-c2cncc(N3CCN(c4ccc(C)cc4)CC3)n2)cc1 [compound 137, 6′-(4-Methylsulfanyl-phenyl)-4-p-tolyl-3,4,5,6-tetrahydro-2H-[1,2′]bipyrazinyl] | 1 to 10 µM
27 | c1cncc(-c2cncc(N3CCN(c4cccc5[nH]ccc45)CC3)n2)c1 [compound 64, 4-(1H-Indol-4-yl)-6′-pyridin-3-yl-3,4,5,6-tetrahydro-2H-[1,2′]bipyrazinyl] | 1 to 10 µM
28 | Nc1ncc(-c2ccc3ccccc3c2)nc1N1CCN(c2ccncc2)CC1 [compound 73, 6′-Naphthalen-2-yl-4-pyridin-4-yl-3,4,5,6-tetrahydro-2H-[1,2′]bipyrazinyl-3′-ylamine] | < 1 µM
29 | O=C(NCCO)c1cccc(-c2cncc(N3CCN(c4ccncc4)CC3)n2)c1 [compound 39, N-(2-Hydroxy-ethyl)-3-(4-pyridin-4-yl-3,4,5,6-tetrahydro-2H-[1,2′]bipyrazinyl-6′-yl)-benzamide] | 10 to 100 µM
30 | Cc1ccc(-c2cncc(N3CCN(c4ccc(F)cc4F)CC3)n2)cc1 [compound 142, 4-(2,4-Difluoro-phenyl)-6′-p-tolyl-3,4,5,6-tetrahydro-2H-[1,2′]bipyrazinyl] | 10 to 100 µM

Other lines, results leading:

Row | IC50 | SMILES
31 | 1 to 10 µM | COc1ccc(-c2cncc(N3CCN(c4cccc(Cl)c4)CC3)n2)cc1OC [compound 100, 4-(3-Chloro-phenyl)-6′-(3,4-dimethoxy-phenyl)-3,4,5,6-tetrahydro-2H-[1,2′]bipyrazinyl]
32 | < 1 µM | COc1ccc(N2CCN(c3cncc(-c4ccc(C(N)=O)cc4)n3)CC2)cc1OC [compound 20, 4-[4-(3,4-Dimethoxyphenyl)-3,4,5,6-tetrahydro-2H-[1,2′]bipyrazinyl-6′-yl)-benzamide]
33 | 10 to 100 µM | Fc1ccc(N2CCN(c3cncc(-c4cccc(F)c4)n3)CC2)cc1 [compound 181, 4-(4-Fluoro-phenyl)-6′-(3-fluoro-phenyl)-3,4,5,6-tetrahydro-2H-[1,2′]bipyrazinyl]
34 | 1 to 10 µM | CC(=O)c1ccccc1-c1cncc(N2CCN(c3ccc(F)cc3F)CC2)n1 [compound 141, 1-{2-[4-(2,4-Difluoro-phenyl)-3,4,5,6-tetrahydro-2H-[1,2′]bipyrazinyl-6′-yl]-phenyl}-ethanone]
35 | 10 to 100 µM | COc1cccc(-c2cncc(N3CCN(c4cccc(Cl)c4)CC3)n2)c1OC [compound 183, 4-(3-Chloro-phenyl)-6′-(2,3-dimethoxy-phenyl)-3,4,5,6-tetrahydro-2H-[1,2′]bipyrazinyl]
36 | 10 to 100 µM | Fc1ccc(N2CCN(c3cncc(-c4cccc5ccccc45)n3)CC2)c(F)c1 [compound 143, 4-(2,4-Dinfluoro-phenyl)-6′-naphthalen-1-yl-3,4,5,6-tetrahydro-2H-[1,2′]bipyrazinyl]
37 | 10 to 100 µM | Clc1cccc(N2CCN(c3cncc(-c4ccccc4Oc4ccccc4)n3)CC2)c1 [compound 185, 4-(3-Chloro-phenyl)-6′-(2-phenoxy-phenyl)-3,4,5,6-tetrahydro-2H-[1,2′]bipyrazinyl]
38 | 1 to 10 µM | Cc1ccc(-c2cncc(N3CCN(c4ccccn4)CC3)n2)cc1C [compound 50, 6′-(3,4-Dimethyl-phenyl)-4-pyridin-2-yl-3,4,5,6-tetrahydro-2H-[1,2′]bipyrazinyl]
39 | 1 to 10 µM | COc1cccc(-c2cncc(N3CCN(c4ccccc4OC)CC3)n2)c1 [compound 105, 4-(2-Methoxy-phenyl)-6′-(3-methoxy-phenyl)-3,4,5,6-tetrahydro-2H-[1,2′]bipyrazinyl]
